Experimental data from patent US12295973B2 (Fred Hutchinson Cancer Center, priority 2017, dated 2025).
Where a SMILES comes first, the peptide text is derived from it. [ ]: non-standard residue; d: D form. The star is where a group is joined. dPhe(4-NHCONH2) = NC(=O)Nc1ccc(C[C@@H](N)C(=O)O)cc1; Dihydroorotyl(S) = O=C1C[C@@H](C(=O)*)NC(=O)N1; dPhe(4-Cl) = N[C@H](Cc1ccc(Cl)cc1)C(=O)O; Phe(4-NH2) = Nc1ccc(C[C@H](N)C(=O)O)cc1; d2Nal = N[C@H](Cc1ccc2ccccc2c1)C(=O)O; Lys(iPr) = CC(C)NCCCC[C@H](N)C(=O)O; d3Pal = N[C@H](Cc1cccnc1)C(=O)O

How the values were obtained:
[1] = tested on: hematopoietic stem and progenitor cell (HSPC) compartment; test: Bone marrow analysis of the HSPC compartment after L-TBI (cellularity, flow cytometry); format: in vivo, mouse
Description: To investigate the specific regenerative effects mediated by LHRH-Ant treatment on the hematopoietic stem and progenitor cell (HSPC) compartment, BM were analyzed at several time points after L-TBI. […] To determine hematopoietic functional potential, colony-forming unit activity was next quantified to determine the effects of LHRH-Ant on the recovery of committed hematopoietic progenitor cells. […] Consistent with these functional findings, on day 14 after L-TBI, expansion of LSKs as well as their downstream progenitors in mice given LHRH-Ant were found (FIGS. 2F, 2G). […] However, given the changes in HSC phenotype after radiation, the standard competitive repopulation functional assay was adapted to evaluate the presence and relative quantity of functional HSCs after L-TBI. Specifically, all cells from the BM and spleen (to account for potential changes to circulating HSCs) were collected and transplanted from vehicle or LHRH-Ant treated mice at day 14 after L-TBI into irradiated hosts (along with a rescue dose of congenic WBM cells to ensure survival). This approach allowed detection of differences in the total number of residual HSCs which would be reflected by a functional difference in hematopoietic reconstitution.
Flow cytometry and cell cycle analysis: Monoclonal antibodies recognizing the following markers were used for flow cytometric analyses and cell sorting of murine cells (LSR II or FACSAria III, BD Biosciences): (from BD Pharmingen) c-kit (2B8), Sca-1 (D7), CD11b (M1/70), CD11c (HL3), CD19 (ID3), CD3ϵ (145-2C11), CD34 (RAM34), CD45 (30-F11), CD45.1 (A20), CD45.2 (104), CD48 (HM48-1), CD62L (MEL-14), CD135 (A2F10.1), Gr-1 (RB6-8C5), NK1.1 (PK136), TER-119 (TER-119); (from eBioscience) CD127 (A7R34), CD150 (mShad150); (from Invitrogen) B220 (RA3-6B2) and streptavidin (N/A). The mouse lineage antibody cocktail included anti-CD3, anti-CD4, anti-CD8α, anti-CD19, anti-CD11 b, anti-CD11c, anti-Gr-1, anti-NK1.1, and anti-TER119. The following antibodies were used for flow cytometry analyses of human samples, CD49f (eBioGoH3), CD45RA (L48), CD34 (581), CD38 (HIT2). CD90 (5E10), CD10 (H110a). The human lineage antibody cocktail included anti-CD3, anti-CD14, anti-CD16, anti-CD19, anti-CD20, anti-CD56. To detect human LHCGR a polyclonal anti-LHCGR (Alomone, cat #:ALR-010) was used. For intracellular Ki67/DAPI staining, BM cells were stained with surface markers, fixed, and permeabilized using the Fixation/Permeabilization kit (cat. 00552100 ebioscience) and permeabilization buffer (cat. 008333 ebioscience). Cells were then incubated with Ki67-Alexa 700 (B56) (from BD Biosciences) for 45 minutes at 4C. After centrifugation DAPI (5 μg/ml) was added to cells and allowed to incubate for at least 30 min at RT before analysis. […]

[2] = Hormone levels (testosterone, LH, FSH) after L-TBI; format: in vivo, mouse
LT-HSCs [3] = test: Cell cycle status of HSCs (Ki-67/DAPI) after L-TBI; format: in vivo, mouse; conditions: vs vehicle
Source text: The control of HSC self-renewal, differentiation, and proliferation is a tightly regulated process crucial for maintaining the HSC pool^29-34. This is particularly relevant during hematopoietic injuries (such as high dose or repeated rounds of chemotherapy or irradiation) when dormant HSCs transiently start to proliferate to replenish blood cells as unbalanced HSC proliferation can lead to stem cell exhaustion and long-term myelosuppression^35-37. […] Although there is a clear need for HSC proliferation to ensure regenerative hematopoiesis, previous reports have also shown that induction of HSC quiescence after high-dose irradiation correlates with increased hematopoietic recovery and enhanced mouse survival^35,37,41.
Flow cytometry and cell cycle analysis: Monoclonal antibodies recognizing the following markers were used for flow cytometric analyses and cell sorting of murine cells (LSR II or FACSAria III, BD Biosciences): (from BD Pharmingen) c-kit (2B8), Sca-1 (D7), CD11b (M1/70), CD11c (HL3), CD19 (ID3), CD3ϵ (145-2C11), CD34 (RAM34), CD45 (30-F11), CD45.1 (A20), CD45.2 (104), CD48 (HM48-1), CD62L (MEL-14), CD135 (A2F10.1), Gr-1 (RB6-8C5), NK1.1 (PK136), TER-119 (TER-119); (from eBioscience) CD127 (A7R34), CD150 (mShad150); (from Invitrogen) B220 (RA3-6B2) and streptavidin (N/A). […]

LT-HSCs [4] = test: Cell cycle status of LT-HSCs in Poly I:C and SL-TBI models, surgically castrated mice; format: in vivo, mouse
Description: To further validate this hypothesis, two additional models were used to force HSCs out of their quiescence phase, Poly I:C and sub-lethal dose of total body irradiation (SL-TBI)^35,42,43. To eliminate any potential effects of downstream sex steroids on HSCs, all cohorts of mice in these studies had been surgically castrated.
Reagents: Degarelix (as acetate), a LHRH-Ant (Firmagon), was resuspended in sterile water for injection and administered S.C. to mice at a dose of 40 mg/kg. To evaluate the radiomitigative effect of LHRH-Ant on survival, mice were treated subcutaneously (S.C.) with a single injection of the LHRH-Ant or a saline control solution (PBS). Degarelix was purchased from the Memorial Sloan-Kettering Cancer Center Pharmacy. […] LH from human pituitary (SIGMA) was resuspended in PBS for in vitro studies. MDV3100 (selleckchem) was resuspended in a mixture of 45% PBS, 45% PEG and 10% DMSO and administered daily to mice by oral gavage at a dose of 10 mg/kg. 5-FU (InvivoGen) was administered to mice intraperitoneally (I.P.) at a dose of 150 mg/kg once every 7 days consecutively for 3 times as previously described^34,47,49. […]

[5] = tested on: mice challenged with successive doses of 5-FU; test: Mouse survival after serial 5-fluorouracil (5-FU) challenge; format: in vivo; conditions: 5-FU 150 mg/kg I.P. once every 7 days, 3 times
Source text: To test whether this LHRH-Ant-mediated preservation of HSC quiescence and enhancement of HSC survival after hematopoietic stress could confer protection against chemotherapy-induced myeloablation, mice were challenged with successive doses of 5-fluorouracil (5-FU); a well-established method to functionally test HSC proliferation and self-renewal that leads to ablation of proliferating HSCs and ultimately death^29,34,47.
Reagents: Degarelix (as acetate), a LHRH-Ant (Firmagon), was resuspended in sterile water for injection and administered S.C. to mice at a dose of 40 mg/kg. To evaluate the radiomitigative effect of LHRH-Ant on survival, mice were treated subcutaneously (S.C.) with a single injection of the LHRH-Ant or a saline control solution (PBS). Degarelix was purchased from the Memorial Sloan-Kettering Cancer Center Pharmacy. […] LH from human pituitary (SIGMA) was resuspended in PBS for in vitro studies. MDV3100 (selleckchem) was resuspended in a mixture of 45% PBS, 45% PEG and 10% DMSO and administered daily to mice by oral gavage at a dose of 10 mg/kg. 5-FU (InvivoGen) was administered to mice intraperitoneally (I.P.) at a dose of 150 mg/kg once every 7 days consecutively for 3 times as previously described^34,47,49.

CC(=O)N[C@H](Cc1ccc2ccccc2c1)C(=O)N[C@H](Cc1ccc(Cl)cc1)C(=O)N[C@H](Cc1cccnc1)C(=O)N[C@@H](CO)C(=O)N[C@@H](Cc1ccc(NC(=O)[C@@H]2CC(=O)NC(=O)N2)cc1)C(=O)N[C@H](Cc1ccc(NC(N)=O)cc1)C(=O)N[C@@H](CC(C)C)C(=O)N[C@@H](CCCCNC(C)C)C(=O)N1CCC[C@H]1C(=O)N[C@H](C)C(N)=O [LHRH-Ant, Degarelix] (Ac-[d2Nal][dPhe(4-Cl)][d3Pal]S[Phe(4-NH2)](Dihydroorotyl(S))[dPhe(4-NHCONH2)]L[Lys(iPr)]P[dA]-NH2)
total BM cellularity ([1]; day 7 after L-TBI, vs vehicle): no difference
LSKs and their downstream progenitors ([1]; day 14 after L-TBI): expansion
LT-HSCs number ([1]; day 14 after L-TBI): significantly more LT-HSCs
BM cellularity ([1]; day 14 after radiation, vs vehicle): started to separate significantly from the vehicle group by day 14
level of testosterone ([2]; after radiation): did not significantly lower the level of testosterone
level of FSH ([2]; irradiated mice): dramatically decreased
level of LH ([2]; irradiated mice): dramatically decreased
proliferative HSCs (LT-HSCs [3]): fewer proliferative HSCs
proportion of Ki-67− quiescent LT-HSCs (LT-HSCs [3]): significantly higher proportion
LT-HSCs in G0 (LT-HSCs [4]; Poly I:C model): retained significantly more LT-HSCs in G0
LT-HSCs in G0 (LT-HSCs [4]; SL-TBI model): retained significantly more LT-HSCs in G0
survival after serial 5-FU challenge [5]: significantly improved survival
